In patent publication US20250296959A1, “B7-H3 TARGETING PEPTIDES AND CONSTRUCTS THEREOF” (Mariana Oncology Inc., priority 2024, published 2025):
Starred links: 1 amine or outer side, 2 acyl side, 3 side chain; linkers in the order of their positions; H or OH if unused. Positions of bridges follow the written chain, without caps; N, C: chain ends. Non-standard residues stand in square brackets, D forms with d. Residues, ends and D or L forms follow the SMILES beside them. ξ: configuration not given here. *: point of attachment. X2 = O=C(O)CN1CCN(CC(=O)O)CCN(CC(=O)NCCOCCOCCOCCOCC(=O)*)CCN(CC(=O)O)CC1; Ala(piperidin-4-yl) = O=C([C@H](CC1CCN([*:3])CC1)N[*:1])[*:2]; DOTA = O=C(O)CN1CCN(CC(=O)O)CCN(CC(=O)*)CCN(CC(=O)O)CC1; Phe(4-COOH) = N[C@@H](Cc1ccc(C(=O)O)cc1)C(=O)O; Trp(5-F) = N[C@@H](Cc1c[nH]c2ccc(F)cc12)C(=O)O; 1Nal = N[C@@H](Cc1cccc2ccccc12)C(=O)O; Ala(4-THP) = N[C@@H](CC1CCOCC1)C(=O)O; AEF = NCCOc1ccc(C[C@H](N)C(=O)O)cc1; 4Pal = N[C@@H](Cc1ccncc1)C(=O)O; Tle = CC(C)(C)[C@H](N)C(=O)O; hLeu = CC(C)CC[C@H](N)C(=O)O; NMeS = CN[C@@H](CO)C(=O)O; hSer = N[C@@H](CCO)C(=O)O; Nle = CCCC[C@H](N)C(=O)O; CH2 = C([*:1])[*:2]; ξP = O=C(O)C1CCCN1

molecular target: T1, human 4lg B7-H3 (Homo sapiens, UniProt Q5ZPR3); assay: Affinity determination by surface plasmon resonance (SPR) to 4Ig B7-H3; conditions: SPR KD—25° C., 4Ig B7-H3; 25° C. flow cell temperature
T1 sequence (Q5ZPR3 29-534): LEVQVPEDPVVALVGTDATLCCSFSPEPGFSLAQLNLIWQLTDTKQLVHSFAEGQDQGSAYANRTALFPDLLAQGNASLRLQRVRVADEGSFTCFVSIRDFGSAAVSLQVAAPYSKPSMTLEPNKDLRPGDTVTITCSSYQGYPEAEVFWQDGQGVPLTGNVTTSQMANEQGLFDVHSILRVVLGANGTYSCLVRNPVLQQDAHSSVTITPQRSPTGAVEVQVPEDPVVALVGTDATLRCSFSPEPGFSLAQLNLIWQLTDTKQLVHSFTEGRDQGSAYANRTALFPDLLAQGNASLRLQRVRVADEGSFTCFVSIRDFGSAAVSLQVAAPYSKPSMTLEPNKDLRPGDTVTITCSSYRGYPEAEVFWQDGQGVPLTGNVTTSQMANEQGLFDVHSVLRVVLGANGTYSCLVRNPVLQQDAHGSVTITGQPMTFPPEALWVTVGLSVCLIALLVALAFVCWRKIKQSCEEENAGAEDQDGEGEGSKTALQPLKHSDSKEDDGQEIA

Structure (SMILES)	Kd
CC(=O)N[C@@H](CCC(C)C)C(=O)N[C@@H](Cc1ccc(O)cc1)C(=O)N[C@H]1CSSC[C@@H](C(=O)N[C@@H](Cc2c[nH]c3ccc(F)cc23)C(=O)N[C@@H](Cc2ccccc2)C(=O)N[C@H](C(N)=O)[C@@H](C)O)NC(=O)[C@H](Cc2ccc(O)cc2)NC(=O)[C@H](C(C)C)NC(=O)[C@H](CC(=O)O)NC(=O)[C@H](Cc2ccc(OCCNC(=O)CN3CCN(CC(=O)O)CCN(CC(=O)O)CCN(CC(=O)O)CC3)cc2)NC(=O)[C@H](CCCCN)NC(=O)CNC(=O)[C@H](C(C)C)NC1=O [compound 295, Ac-hLeu-Y-C-V-G-K-AEF(DOTA)-D-V-Y-C-5FW-F-Thr-CONH2] (Ac-[hLeu]YCVGK[AEF](DOTA)DVYC[Trp(5-F)]FT-NH2; disulfide 3-11)	< 1 nM
CC(=O)N[C@@H](CCC(C)C)C(=O)N[C@@H](Cc1ccc(O)cc1)C(=O)N[C@H]1CSCSC[C@@H](C(=O)N[C@@H](Cc2cccc3ccccc23)C(=O)N[C@@H](Cc2ccccc2)C(=O)N(C)[C@@H](CO)C(=O)N[C@H](CCCCNC(=O)CN2CCN(CC(=O)O)CCN(CC(=O)O)CCN(CC(=O)O)CC2)C(N)=O)NC(=O)[C@H](Cc2ccc(O)cc2)NC(=O)[C@H](C(C)C)NC(=O)[C@H](CC(=O)O)NC(=O)[C@H](Cc2ccncc2)NC(=O)[C@H](CCCCN)NC(=O)CNC(=O)[C@H](C(C)(C)C)NC1=O [compound 297, Ac-hLeu-Y-C(CH2)-Tbg-G-K-4PyA-D-V-Y-C-1Nal-F-NMeSer-dLys(DOTA)-CONH2] (Ac-[hLeu]YC[Tle]GK[4Pal]DVYC[1Nal]F[NMeS][dK](DOTA)-NH2; linker 3-11 via CH2)	100 to 300 nM
CC(=O)N[C@@H](CCC(C)C)C(=O)N[C@@H](Cc1ccc(O)cc1)C(=O)N[C@H]1CSSC[C@@H](C(=O)N[C@@H](Cc2c[nH]c3ccc(F)cc23)C(=O)N[C@@H](Cc2ccccc2)C(=O)N2CCC[C@H]2C(N)=O)NC(=O)[C@H](Cc2ccc(O)cc2)NC(=O)[C@H](C(C)C)NC(=O)[C@H](CC(=O)O)NC(=O)[C@H](Cc2ccc(OCCNC(=O)CN3CCN(CC(=O)O)CCN(CC(=O)O)CCN(CC(=O)O)CC3)cc2)NC(=O)[C@H](CC2CCNCC2)NC(=O)CNC(=O)[C@H](C(C)C)NC1=O [compound 301, Ac-hLeu-Y-C-V-G-PipAla-AEF(DOTA)-D-V-Y-C-5FW-F-Pro-CONH2] (Ac-[hLeu]YCVG[Ala(piperidin-4-yl)][AEF](DOTA)DVYC[Trp(5-F)]FP-NH2; disulfide 3-11)	< 1 nM
CCCC[C@@H]1NC(=O)[C@H](C(C)C)NC(=O)[C@H](CC(=O)O)NC(=O)[C@H](Cc2ccc(C(=O)O)cc2)NC(=O)[C@H](CCCCNC(=O)CN2CCN(CC(=O)O)CCN(CC(=O)O)CCN(CC(=O)O)CC2)NC(=O)CNC(=O)[C@H](C(C)C)NC(=O)[C@@H](NC(=O)[C@H](Cc2ccc(O)cc2)NC(=O)[C@H](CCC(C)C)NC(C)=O)CSSC[C@@H](C(=O)N[C@@H](Cc2c[nH]c3ccc(F)cc23)C(=O)N[C@@H](Cc2ccccc2)C(=O)N2CCC[C@H]2C(N)=O)NC1=O [compound 302, Ac-hLeu-Y-C-V-G-Lys(DOTA)-4COOHPhe-D-V-Nle-C-5FW-F-Pro-CONH2] (Ac-[hLeu]YCVGK(DOTA)[Phe(4-COOH)]DV[Nle]C[Trp(5-F)]FP-NH2; disulfide 3-11)	100 to 300 nM
COc1ccc(C[C@@H]2NC(=O)[C@H](C(C)C)NC(=O)[C@H](CC(=O)O)NC(=O)[C@H](Cc3ccncc3)NC(=O)[C@H](CCCCNC(=O)CN3CCN(CC(=O)O)CCN(CC(=O)O)CCN(CC(=O)O)CC3)NC(=O)CNC(=O)[C@H](C(C)C)NC(=O)[C@@H](NC(=O)[C@H](Cc3ccc(O)cc3)NC(=O)[C@H](CCC(C)C)NC(C)=O)CSSC[C@@H](C(=O)N[C@@H](Cc3cccc4ccccc34)C(=O)N[C@@H](Cc3ccccc3)C(=O)N3CCCC3C(N)=O)NC2=O)cc1 (stereo partly drawn) [compound 309, Ac-hLeu-Y-C-V-G-Lys(DOTA)-4PyA-D-V-OMeTyr-C-1Nal-F-Pro-CONH2] (Ac-[hLeu]YCVGK(DOTA)[4Pal]DVY(Me)C[1Nal]F[ξP]-NH2; disulfide 3-11)	1 to 10 nM

More lines, now with the values ahead:

Kd	Structure (SMILES)
1 to 10 nM	CC(=O)N[C@@H](CCC(C)C)C(=O)N[C@@H](Cc1ccc(O)cc1)C(=O)N[C@H]1CSSC[C@@H](C(=O)N[C@@H](Cc2c[nH]c3ccc(F)cc23)C(=O)N[C@@H](Cc2ccccc2)C(=O)N2CCC[C@H]2C(=O)N[C@H](CCCCNC(=O)CN2CCN(CC(=O)O)CCN(CC(=O)O)CCN(CC(=O)O)CC2)C(=O)O)NC(=O)[C@H](Cc2ccc(O)cc2)NC(=O)[C@H](C(C)C)NC(=O)[C@H](CC(=O)O)NC(=O)[C@H](CC2CCOCC2)NC(=O)[C@H](CCCCN)NC(=O)CNC(=O)[C@H](C(C)(C)C)NC1=O [compound 304, Ac-hLeu-Y-C-Tbg-G-K-ThpA-D-V-Y-C-5FW-F-Pro-dLys(DOTA)-COOH] (Ac-[hLeu]YC[Tle]GK[Ala(4-THP)]DVYC[Trp(5-F)]FP[dK](DOTA)-OH; disulfide 3-11)
100 to 300 nM	CC(=O)N[C@@H](CCC(C)C)C(=O)N[C@@H](Cc1ccc(O)cc1)C(=O)N[C@H]1CSSC[C@@H](C(=O)N[C@@H](Cc2c[nH]c3ccc(F)cc23)C(=O)N[C@@H](Cc2ccccc2)C(=O)N2CCC[C@H]2C(=O)O)NC(=O)[C@H](Cc2ccc(O)cc2)NC(=O)[C@H](C(C)C)NC(=O)[C@H](CC(=O)O)NC(=O)[C@H](CC2CCOCC2)NC(=O)[C@H](CCCCNC(=O)CN2CCN(CC(=O)O)CCN(CC(=O)O)CCN(CC(=O)O)CC2)NC(=O)CNC(=O)[C@H](C(C)(C)C)NC1=O [compound 305, Ac-hLeu-Y-C-Tbg-G-Lys(DOTA)-ThpA-D-V-Y-C-5FW-F-Pro-COOH] (Ac-[hLeu]YC[Tle]GK(DOTA)[Ala(4-THP)]DVYC[Trp(5-F)]FP-OH; disulfide 3-11)
1 to 10 nM	CC(=O)N[C@@H](CCC(C)C)C(=O)N[C@@H](Cc1ccc(O)cc1)C(=O)N[C@H]1CSSC[C@@H](C(=O)N[C@@H](Cc2c[nH]c3ccc(F)cc23)C(=O)N[C@@H](Cc2ccccc2)C(=O)N2CCC[C@H]2C(=O)N[C@H](CCCCNC(=O)COCCOCCOCCOCCNC(=O)CN2CCN(CC(=O)O)CCN(CC(=O)O)CCN(CC(=O)O)CC2)C(=O)O)NC(=O)[C@H](Cc2ccc(O)cc2)NC(=O)[C@H](C(C)C)NC(=O)[C@H](CC(=O)O)NC(=O)[C@H](CC2CCOCC2)NC(=O)[C@H](CCCCN)NC(=O)CNC(=O)[C@H](C(C)(C)C)NC1=O [compound 307, Ac-hLeu-Y-C-Tbg-G-K-ThpA-D-V-Y-C-5FW-F-Pro-dLys(PEG4-DOTA)-COOH] (Ac-[hLeu]YC[Tle]GK[Ala(4-THP)]DVYC[Trp(5-F)]FP[dK](X2)-OH; disulfide 3-11)
1 to 10 nM	CC(=O)N[C@@H](CCC(C)C)C(=O)N[C@@H](Cc1ccc(O)cc1)C(=O)N[C@H]1CSSC[C@@H](C(=O)N[C@@H](Cc2c[nH]c3ccc(F)cc23)C(=O)N[C@@H](Cc2ccccc2)C(=O)N2CCC[C@H]2C(=O)N[C@H](CCCCNC(=O)CN2CCN(CC(=O)O)CCN(CC(=O)O)CCN(CC(=O)O)CC2)C(=O)O)NC(=O)[C@H](Cc2ccc(O)cc2)NC(=O)[C@H](C(C)C)NC(=O)[C@H](CC(=O)O)NC(=O)[C@H](CC2CCOCC2)NC(=O)[C@H](CCO)NC(=O)CNC(=O)[C@H](C(C)(C)C)NC1=O [compound 311, Ac-hLeu-Y-C-Tbg-G-hSer-ThpA-D-V-Y-C-5FW-F-Pro-dLys(DOTA)-COOH] (Ac-[hLeu]YC[Tle]G[hSer][Ala(4-THP)]DVYC[Trp(5-F)]FP[dK](DOTA)-OH; disulfide 3-11)

same assay, conditions: SPR KD—37° C., 4Ig B7-H3; 37° C. flow cell temperature

Kd	Structure (SMILES)
< 1 nM	CC(=O)N[C@@H](CCC(C)C)C(=O)N[C@@H](Cc1ccc(O)cc1)C(=O)N[C@H]1CSSC[C@@H](C(=O)N[C@@H](Cc2c[nH]c3ccc(F)cc23)C(=O)N[C@@H](Cc2ccccc2)C(=O)N[C@H](C(N)=O)[C@@H](C)O)NC(=O)[C@H](Cc2ccc(O)cc2)NC(=O)[C@H](C(C)C)NC(=O)[C@H](CC(=O)O)NC(=O)[C@H](Cc2ccc(OCCNC(=O)CN3CCN(CC(=O)O)CCN(CC(=O)O)CCN(CC(=O)O)CC3)cc2)NC(=O)[C@H](CCCCN)NC(=O)CNC(=O)[C@H](C(C)C)NC1=O [compound 295, Ac-hLeu-Y-C-V-G-K-AEF(DOTA)-D-V-Y-C-5FW-F-Thr-CONH2] (Ac-[hLeu]YCVGK[AEF](DOTA)DVYC[Trp(5-F)]FT-NH2; disulfide 3-11)
